Reference: the NIST ThermoML archive (doi:10.1016/j.jct.2007.07.002)
“And” between values parts separate entries of the source, which are not always exact repeats. Equal entries are not always repeated.

Conditions: Gas, double Helmholtz acoustic resonator

FC1(F)C(F)(F)C(F)(F)C1(F)F [octafluorocyclobutane]
Conditions	kinematic viscosity [m2/s]	speed of sound
300 K, 160.13 kPa	8.54e-07	109.85 m/s
300 K, 180.38 kPa	7.62e-07	109.17 m/s
300 K, 209.45 kPa	6.47e-07	108.13 m/s
300 K, 239.58 kPa	5.55e-07	107.04 m/s
310 K, 167.11 kPa	1.04e-06	111.91 m/s
310 K, 212.21 kPa	6.65e-07	110.44 m/s
310 K, 259.63 kPa	5.45e-07	108.88 m/s
310 K, 319.54 kPa	4.4e-07	106.84 m/s
310 K, 359.99 kPa	4.21e-07	105.47 m/s
315 K, 195.64 kPa	7.57e-07	112.23 m/s
315 K, 234.75 kPa	6.39e-07	111.1 m/s
315 K, 272.93 kPa	5.38e-07	109.92 m/s
315 K, 312.27 kPa	4.61e-07	108.66 m/s
315 K, 357.7 kPa	3.99e-07	107.16 m/s
315 K, 410.27 kPa	3.42e-07	105.34 m/s
320 K, 122.6 kPa	1.12e-06	115.18 m/s
320 K, 172.92 kPa	9.2e-07	113.83 m/s
320 K, 222.82 kPa	6.6e-07	112.47 m/s
320 K, 274.43 kPa	5.38e-07	111.03 m/s
320 K, 326.85 kPa	4.48e-07	109.44 m/s
320 K, 380.03 kPa	3.92e-07	107.76 m/s
320 K, 482.22 kPa	2.95e-07	104.31 m/s
330 K, 117.49 kPa	1.43e-06	117.54 m/s
330 K, 189.29 kPa	8.81e-07	115.79 m/s
330 K, 215.35 kPa	7.77e-07	115.12 m/s
330 K, 288.39 kPa	5.63e-07	113.25 m/s
330 K, 290.78 kPa	5.67e-07	113.11 m/s
330 K, 368.85 kPa	4.3e-07	111.06 m/s
330 K, 376.53 kPa	4.2e-07	110.78 m/s
330 K, 450.7 kPa	3.45e-07	108.71 m/s
330 K, 465.61 kPa	3.3e-07	108.18 m/s
330 K, 534.61 kPa	2.83e-07	106.13 m/s
330 K, 536.09 kPa	2.8e-07	106 m/s
330 K, 621.46 kPa	2.37e-07	103.15 m/s and 103.25 m/s
345.04 K, 244.86 kPa	7.3e-07	117.72 m/s
345.04 K, 347.35 kPa	5.14e-07	115.42 m/s
345.04 K, 445.79 kPa	3.86e-07	113.12 m/s
345.04 K, 553.32 kPa	3.05e-07	110.35 m/s
345.04 K, 652.37 kPa	2.52e-07	107.68 m/s
345.04 K, 772.66 kPa	2.06e-07	104.17 m/s
345.04 K, 881.89 kPa	1.76e-07	100.69 m/s
360 K, 216.1 kPa	9.15e-07	121.47 m/s
360 K, 407.3 kPa	4.74e-07	117.75 m/s
360 K, 609.73 kPa	3.2e-07	113.46 m/s
360 K, 802.73 kPa	2.19e-07	108.94 m/s
360 K, 1012.2 kPa	1.68e-07	103.47 m/s
360 K, 1203.3 kPa	1.35e-07	97.73 m/s
375 K, 183.85 kPa	1.12e-06	124.97 m/s
375 K, 378.87 kPa	5.53e-07	121.72 m/s
375 K, 568.99 kPa	3.54e-07	118.34 m/s
375 K, 758.63 kPa	2.59e-07	114.75 m/s
375 K, 960.1 kPa	2.05e-07	110.61 m/s
375 K, 1188.2 kPa	1.56e-07	105.48 m/s
375 K, 1402 kPa	1.28e-07	100.08 m/s
375 K, 1620.4 kPa	1.06e-07	93.75 m/s
